Test systems include SK-MEL-28 melanoma; MCF7 breast; HOP-62 NSCLC; HT29 colon; UO-31 renal; OVCAR-3 ovarian; M14 melanoma; 786-0 renal.
Holding throughout (assay): NCI-60 cell line screen, 48 h

The source of these data is PubChem BioAssay (NCI).

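Growth conditions: 96-well plates. Treatment: test compound, 48 hours, 5 concentrations. Analysis: linear interpolation between bracketing concentrations; unreached endpoints set to highest concentration. GI50 marks 50% less growth. The concentration for full growth arrest is given as TGI.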

Turning to `COc1ccc(-c2nc3ccc(-c4nc5ccc(N6CCN(c7ccccc7)CC6)cc5[nH]4)cc3[nH]2)cc1OC`, the GI50 is 1.66 µM in the assay with SK-MEL-28 melanoma; 0.138 µM with MCF7 breast; 2.04 µM in the assay on HOP-62 NSCLC; 1.2 µM in the assay on HT29 colon; 51.4 µM with UO-31 renal; 2.04 µM with OVCAR-3 ovarian. The GI50 in the assay on M14 melanoma was 1.69 µM; in the assay on 786-0 renal it was 1.62 µM. Further, the TGI is 3.24 µM in the assay on SK-MEL-28 melanoma; 0.649 µM in the assay with MCF7 breast; 6.58 µM with HOP-62 NSCLC; 2.68 µM in the assay on HT29 colon; more than 100 µM with UO-31 renal; 3.64 µM in the assay with OVCAR-3 ovarian. Also, the TGI with M14 melanoma was determined as 6.32 µM; in the assay with 786-0 renal, 3.12 µM.

`CCCN1C(=O)N(CCC)C2C1NC(=S)N2/N=C/C=C/c1ccccc1OC` (configuration not stated): the GI50 in the assay on SK-MEL-28 melanoma was 6.26 µM; in the assay on MCF7 breast, 0.39 µM; with HOP-62 NSCLC, 0.713 µM; with HT29 colon it was 0.386 µM; in the assay on UO-31 renal it was 1.26 µM; in the assay with OVCAR-3 ovarian, 0.273 µM. The GI50 in the assay on M14 melanoma was 0.455 µM; in the assay with 786-0 renal, 0.779 µM. Further, the TGI was more than 100 µM in the assay on SK-MEL-28 melanoma; more than 100 µM in the assay with MCF7 breast; more than 100 µM in the assay with HOP-62 NSCLC; 17.8 µM with HT29 colon; more than 100 µM in the assay with UO-31 renal; 0.815 µM with OVCAR-3 ovarian. For the same compound, the TGI in the assay on M14 melanoma is more than 100 µM; in the assay on 786-0 renal, more than 68.8 µM.

With `CC[C@H]1[C@@H]2C=C[C@@H]3[C@H]4C/C=C\C(=O)NCCC[C@@H]5NC(=O)/C(=C(O)/C=C/[C@@H]4C[C@@H]3[C@H]2C[C@H]1C)C5=O`, the GI50 in the assay with SK-MEL-28 melanoma is 1.89 µM; in the assay with MCF7 breast it was 1.75 µM; in the assay on HOP-62 NSCLC, 1.4 µM; in the assay on HT29 colon, 1.73 µM; in the assay on UO-31 renal it was 0.546 µM; in the assay on OVCAR-3 ovarian, 0.202 µM. For the same compound, the GI50 in the assay on M14 melanoma is 1.58 µM; in the assay with 786-0 renal it was 0.44 µM. In addition, the TGI in the assay with SK-MEL-28 melanoma turned out to be 4.06 µM; in the assay on MCF7 breast, 3.88 µM; in the assay with HOP-62 NSCLC, 3.03 µM; in the assay on HT29 colon, 3.31 µM; with UO-31 renal, 1.91 µM; in the assay on OVCAR-3 ovarian, 0.556 µM. Also, the TGI in the assay on M14 melanoma turned out to be 3.08 µM; in the assay on 786-0 renal, 1.59 µM.

With `COc1ccc(/C=C2/N=C(c3ccccc3)N(c3c(C)n(C)n(-c4ccccc4)c3=O)C2=O)cc1OC`, the GI50 was more than 100 µM with SK-MEL-28 melanoma; 70.5 µM in the assay with MCF7 breast; more than 100 µM with HOP-62 NSCLC; more than 100 µM in the assay on HT29 colon; more than 100 µM with UO-31 renal; more than 100 µM in the assay with OVCAR-3 ovarian. The GI50 in the assay with M14 melanoma and with 786-0 renal was more than 100 µM throughout. Further, the TGI with SK-MEL-28 melanoma, in the assay with MCF7 breast, in the assay on HOP-62 NSCLC, in the assay with HT29 colon, in the assay on UO-31 renal and in the assay on OVCAR-3 ovarian was more than 100 µM in each case. Besides, the TGI in the assay on M14 melanoma and in the assay on 786-0 renal was more than 100 µM throughout.

Regarding `CCCC(=O)Nc1cc2c3c(c1)CCCN3CCC2`, the TGI in the assay on SK-MEL-28 melanoma, in the assay with MCF7 breast, with HOP-62 NSCLC, in the assay on HT29 colon, in the assay on OVCAR-3 ovarian and in the assay with M14 melanoma was more than 10 µM in each case. The TGI with 786-0 renal was more than 10 µM.

Regarding `COc1cc2c(cc1OCCCNC(=O)c1cccc3c(=O)c4ccccc4[nH]c13)N=C[C@@H]1CCCN1C2=O`, the GI50 with SK-MEL-28 melanoma was less than 0.01 µM; in the assay on MCF7 breast it was less than 0.0242 µM; in the assay with HOP-62 NSCLC it was less than 0.01 µM; with M14 melanoma, less than 0.01 µM; in the assay on 786-0 renal, less than 0.01 µM. Further, the TGI in the assay on SK-MEL-28 melanoma is 2.89 µM; in the assay on MCF7 breast it was 13.8 µM; in the assay with HOP-62 NSCLC it was 0.399 µM; in the assay with HT29 colon, more than 56.3 µM; in the assay on UO-31 renal, 16.9 µM; in the assay on OVCAR-3 ovarian, 6.64 µM. In addition, the results for the TGI in the assay on M14 melanoma and in the assay with 786-0 renal were less than 0.01 µM and 24 µM, respectively.

With `C[C@@H]1CC[C@@H]2[C@@H]1[C@H](OC(=O)/C=C/c1ccccc1)[C@]1(C3CCCCC3)C[C@@H](OC(=O)CO)[C@@]2(C)O1`, the GI50 in the assay on SK-MEL-28 melanoma is 3.59 µM; in the assay with MCF7 breast, 2.58 µM; in the assay with HOP-62 NSCLC, 3.3 µM; in the assay with HT29 colon, 2.89 µM; in the assay with UO-31 renal it was 0.015 µM; with OVCAR-3 ovarian, 2.53 µM. Also, the results for the GI50 in the assay on M14 melanoma and in the assay with 786-0 renal were 3.57 µM and 1.17 µM, respectively. Also, the TGI turned out to be 15.1 µM with SK-MEL-28 melanoma; 10.8 µM in the assay with MCF7 breast; 14 µM in the assay on HOP-62 NSCLC; 8.05 µM with HT29 colon; 0.03 µM with UO-31 renal; 7.3 µM with OVCAR-3 ovarian. In addition, the TGI worked out at 15.2 µM in the assay with M14 melanoma and 3.07 µM with 786-0 renal.

Take `O=C(c1ccccc1)c1cc2ccccc2o1`: the GI50 in the assay on SK-MEL-28 melanoma was more than 100 µM; in the assay with MCF7 breast, more than 100 µM; in the assay with HOP-62 NSCLC, more than 100 µM; in the assay on HT29 colon, 76.1 µM; in the assay on UO-31 renal it was 21.3 µM; with OVCAR-3 ovarian, 59.6 µM. Further, the GI50 with M14 melanoma and in the assay on 786-0 renal was more than 100 µM throughout. The TGI with SK-MEL-28 melanoma, in the assay with MCF7 breast, in the assay with HOP-62 NSCLC, in the assay with HT29 colon, in the assay with UO-31 renal and with OVCAR-3 ovarian was more than 100 µM in each case. In addition, the TGI with M14 melanoma and in the assay on 786-0 renal was more than 100 µM throughout.

On to `COc1cc(Cn2c(-c3ccccc3)c(Cl)c3c2-c2oncc2CC3)cc(OC)c1`, for which the GI50 in the assay on SK-MEL-28 melanoma was 8.52 µM; with MCF7 breast, 3.81 µM; with HOP-62 NSCLC, 44 µM; in the assay on HT29 colon, 3.71 µM; with UO-31 renal, 4.16 µM; in the assay on OVCAR-3 ovarian, 4.63 µM. Also, the results for the GI50 in the assay on M14 melanoma and with 786-0 renal were 4.22 µM and 12.9 µM, respectively. The TGI with SK-MEL-28 melanoma was more than 100 µM; with MCF7 breast, more than 100 µM; in the assay with HOP-62 NSCLC, more than 100 µM; in the assay on HT29 colon, more than 100 µM; in the assay with UO-31 renal it was 27.7 µM; in the assay with OVCAR-3 ovarian, 22.9 µM. Besides, the TGI with M14 melanoma was 18.1 µM; in the assay with 786-0 renal it was more than 100 µM.
